Measured values reported in ChEMBL document CHEMBL4028815, “Novel phosphonate analogs of sulforaphane: Synthesis, in vitro and in vivo anticancer activity” (Eur J Med Chem, 2017).
Activity calls are given as the source filed them. No cut-off for these calls is given here.

Columns and labels:
[1] = tested on: 4T1; assay: Anti-tumor activity against mouse 4T1 cells implanted in BALB/c mdb mouse assessed as tumor growth inhibition at 25 umol/kg, ip administered 3 times weekly measured on day 29 post cell innoculum relative to control; settings: 4T1, ip, 696 h, read-out: TGI
[2] = Cytotoxicity against human LoVo/DX cells after 72 hrs by sulforhodamine B assay; type: functional, cell-based
[3] = Potency index, ratio of sulforaphane IC50 to compound IC50 for human LoVo/DX cell; type: functional
[4] = tested on: LoVo; assay: Cytotoxicity against human LoVo cells after 72 hrs by sulforhodamine B assay; type: functional, cell-based
[5] = Potency index, ratio of benzyl isothiocyanate IC50 to compound IC50 for human LoVo/DX cell; type: functional
[6] = tested on: LoVo; assay: Potency index, ratio of sulforaphane IC50 to compound IC50 for human LoVo cells; type: functional
[7] = tested on: LoVo; assay: Potency index, ratio of benzyl isothiocyanate IC50 to compound IC50 for human LoVo cells; type: functional
[8] = tested on: MES-SA; assay: Cytotoxicity against human MESSA cells after 72 hrs by sulforhodamine B assay; type: functional, cell-based
[9] = tested on: LoVo/DX; assay: Induction of apoptosis in human LoVo/DX cells assessed as loss of mitochondrial membrane potential at 15 uM after 24 hrs by JC-1 staining based flow cytometric method relative to control; type: functional
[10] = tested on: Mus musculus; assay: Toxicity in BALB/c mdb mouse implanted with mouse 4T1 cells assessed as serum urea level at 450 umol/kg, ip administered five times weekly measured at 29 day post cell innoculum (reference value: 3.8 +/- […]); type: organism-based; settings: in vivo, 696 h
[11] = tested on: LoVo/DX; assay: Induction of apoptosis in human LoVo/DX cells assessed as late apoptotic cells at 15 uM after 24 hrs by APC-Annexin-V/propidium iodide staining based flow cytometric method relative to control; type: functional
[12] = tested on: Mus musculus; assay: Toxicity in BALB/c mdb mouse implanted with mouse 4T1 cells assessed as spleen weight at 450 umol/kg, ip administered five times weekly measured at 29 day post cell innoculum (reference value: 0.603 +/- 0.133 g); type: organism-based; settings: in vivo, 696 h
[13] = Resistance index, ratio of IC50 for human HL60/MX2 cells to IC50 for human HL60 cells; type: functional
[14] = tested on: Mus musculus; assay: Toxicity in BALB/c mdb mouse implanted with mouse 4T1 cells assessed as body weight loss at 450 umol/kg, ip administered five times weekly measured 3 times weekly during compound dosing; type: organism-based; settings: in vivo
[15] = tested on: Mus musculus; assay: Toxicity in BALB/c mdb mouse implanted with mouse 4T1 cells assessed as lung weight at 450 umol/kg, ip administered five times weekly measured at 29 day post cell innoculum (reference value: 0.2 +/- 0.018 g); type: organism-based; settings: in vivo, 696 h
[16] = tested on: LoVo; assay: Induction of apoptosis in human LoVo cells assessed as necrotic cells at 15 uM after 24 hrs by APC-Annexin-V/propidium iodide staining based flow cytometric method (reference value: 10%); type: functional
[17] = tested on: Mus musculus; assay: Toxicity in BALB/c mdb mouse implanted with mouse 4T1 cells assessed as hematocrit at 450 umol/kg, ip administered five times weekly measured at 29 day post cell innoculum (reference value: 39.9 +/- 3.7 %); type: organism-based; settings: in vivo, 696 h
[18] = tested on: 4T1; assay: Cytotoxicity against mouse 4T1 cells after 72 hrs by sulforhodamine B assay; type: functional, cell-based; settings: 4T1, 72 h
[19] = tested on: HL60/MX2; assay: Cytotoxicity against human HL60/MX2 cells after 72 hrs by sulforhodamine B assay; type: functional, cell-based; settings: HL60/MX2, 72 h
[20] = tested on: LoVo/DX; assay: Cell cycle arrest in human LoVo/DX cells at 15 uM after 24 hrs by propidium iodide staining based flow cytometric method; type: functional
[21] = tested on: Mus musculus; assay: Hepatotoxicity in BALB/c mdb mouse implanted with mouse 4T1 cells assessed as liver weight at 450 umol/kg, ip administered five times weekly measured at 29 day post cell innoculum (reference value: 1.2 +/- 0.13 g); type: toxicity, organism-based; settings: in vivo, 696 h
[22] = tested on: LoVo; assay: Induction of apoptosis in human LoVo cells assessed as increase in caspase3/7 activity at >15 uM using Ac-DEVD-ACC as substrate pretreated for 24 hrs followed by substrate addition measured for 2 hrs by fluorescence assay; type: functional, cell-based
[23] = tested on: Mus musculus; assay: Toxicity in BALB/c mdb mouse implanted with mouse 4T1 cells assessed as serum PLT level at 450 umol/kg, ip administered five times weekly measured at 29 day post cell innoculum (reference value: 972 +/- 157 10^3/uL); type: organism-based; settings: in vivo, 696 h
[24] = tested on: LoVo; assay: Induction of apoptosis in human LoVo cells assessed as increase in caspase3/7 activity at 15 uM using Ac-DEVD-ACC as substrate pretreated for 24 hrs followed by substrate addition measured for 2 hrs by fluorescence assay relative to control; type: functional
[25] = tested on: MES-SA/Dx5; assay: Cytotoxicity against human MESSA/DX5 cells after 72 hrs by sulforhodamine B assay; type: functional, cell-based; settings: MES-SA/Dx5, 72 h
[26] = tested on: LoVo; assay: Induction of apoptosis in human LoVo cells assessed as increase in early apoptotic cells at 15 uM after 24 hrs by APC-Annexin-V/propidium iodide staining based flow cytometric method relative to control; type: functional
[27] = tested on: 4T1; assay: Anti-tumor activity against mouse 4T1 cells implanted in BALB/c mdb mouse assessed as lung metastasis at 450 umol/kg, ip administered five times weekly measured at 29 days post cell innoculum (reference value: 56 +/- 25); type: functional
[28] = tested on: A549; assay: Cytotoxicity against human A549 cells after 72 hrs by sulforhodamine B assay; type: functional, cell-based; settings: A549, 72 h
[29] = tested on: Mus musculus; assay: Toxicity in BALB/c mdb mouse implanted with mouse 4T1 cells assessed as RBC level at 450 umol/kg, ip administered five times weekly measured at 29 day post cell innoculum (reference value: 8.6 +/- 0.9 10^6/uL); type: organism-based; settings: in vivo, 696 h
[30] = tested on: Mus musculus; assay: Toxicity in BALB/c mdb mouse implanted with mouse 4T1 cells assessed as serum ALT level at 450 umol/kg, ip administered five times weekly measured at 29 day post cell innoculum (reference value: 23.8 +/- 2.2 U/L); type: organism-based; settings: in vivo, 696 h
[31] = tested on: Mus musculus; assay: Toxicity in BALB/c mdb mouse implanted with mouse 4T1 cells assessed as serum AST level at 450 umol/kg, ip administered five times weekly measured at 29 day post cell innoculum (reference value: 136 +/- 10.3 U/L); type: organism-based; settings: in vivo, 696 h
[32] = tested on: Mus musculus; assay: Nephrotoxicity in BALB/c mdb mouse implanted with mouse 4T1 cells assessed as kidney weight at 450 umol/kg, ip administered five times weekly measured at 29 day post cell innoculum (reference value: 0.136 +/- 0.006 g); type: toxicity, organism-based; settings: in vivo, 696 h
[33] = tested on: LoVo/DX; assay: Induction of apoptosis in human LoVo/DX cells assessed as increase in caspase3/7 activity at >15 uM using Ac-DEVD-ACC as substrate pretreated for 24 hrs followed by substrate addition measured for 2 hrs by fluorescence assay; type: functional, cell-based
[34] = tested on: Mus musculus; assay: Toxicity in BALB/c mdb mouse implanted with mouse 4T1 cells assessed as serum creatinine level at 450 umol/kg, ip administered five times weekly measured at 29 day post cell innoculum (reference value: 9.3 +/- 1.2 umol/L); type: organism-based; settings: in vivo, 696 h
[35] = tested on: Mus musculus; assay: Toxicity in BALB/c mdb mouse implanted with mouse 4T1 cells assessed as hemoglobin level at 450 umol/kg, ip administered five times weekly measured at 29 day post cell innoculum (reference value: 15.1 +/- 1.5 g/dl); type: organism-based; settings: in vivo, 696 h
[36] = tested on: Mus musculus; assay: Toxicity in BALB/c mdb mouse implanted with mouse 4T1 cells assessed as body weight loss at 450 umol/kg, ip administered five times weekly measured on day 11; type: organism-based; settings: in vivo
[37] = Induction of apoptosis in human LoVo/DX cells assessed as increase in caspase3/7 activity at 15 uM using Ac-DEVD-ACC as substrate pretreated for 24 hrs followed by substrate addition measured for 2 hrs by fluorescence assay relative to control; type: functional
[38] = tested on: LoVo; assay: Induction of apoptosis in human LoVo cells assessed as loss of mitochondrial membrane potential at 15 uM after 24 hrs by JC-1 staining based flow cytometric method relative to control; type: functional
[39] = tested on: LoVo; assay: Cell cycle arrest in human LoVo cells at 15 uM after 24 hrs by propidium iodide staining based flow cytometric method; type: functional
[40] = tested on: BALB/3T3; assay: Cytotoxicity against mouse BALB/3T3 cells after 72 hrs by sulforhodamine B assay; type: cell-based; settings: BALB/3T3, 72 h
[41] = tested on: 4T1; assay: Anti-tumor activity against mouse 4T1 cells implanted in BALB/c mdb mouse assessed as tumor growth inhibition at 450 umol/kg, ip administered five times weekly measured on day 29 post cell innoculum relative to control; type: functional; settings: 4T1, ip, 696 h, read-out: TGI
[42] = tested on: HL-60; assay: Cytotoxicity against human HL60 cells after 72 hrs by sulforhodamine B assay; type: functional, cell-based; settings: HL-60, 72 h
[43] = tested on: Mus musculus; assay: Toxicity in BALB/c mdb mouse implanted with mouse 4T1 cells assessed as body weight loss at 450 umol/kg, ip administered five times weekly starting from day 15 post cell innoculum; type: organism-based; settings: in vivo
[44] = tested on: Mus musculus; assay: Toxicity in BALB/c mdb mouse implanted with mouse 4T1 cells assessed as WBC level at 450 umol/kg, ip administered five times weekly measured at 29 day post cell innoculum (reference value: 212.3 +/- 82.8 10^3/uL); type: organism-based; settings: in vivo, 696 h
[45] = Cytotoxicity against human LoVo/DX cells assessed as cell death at >15 uM after 24 hrs; type: cell-based
[46] = tested on: LoVo; assay: Cytotoxicity against human LoVo cells assessed as cell death at >15 uM after 24 hrs; type: cell-based
[47] = tested on: LoVo; assay: Induction of apoptosis in human LoVo cells assessed as late apoptotic cells at 15 uM after 24 hrs by APC-Annexin-V/propidium iodide staining based flow cytometric method relative to control; type: functional

O=P1(N(CCCl)CCCl)NCCCO1 (stereo unspecified) [CYCLOPHOSPHAMIDE ANHYDROUS]
inhibition in vivo at 25 µmol/kg [1]: 33.3%

CC(C)COP(=O)(CCN=C=S)OCC(C)C
IC50 [2]: 2.6 µM
Ratio IC50 [3]: 10
IC50 [4]: 1.9 µM
Ratio IC50 [5]: 5
Ratio IC50 [6]: 10
Ratio IC50 [7]: 5

CCOP(=O)(CCCCCCN=C=S)OCC
IC50 [2]: 3.9 µM
IC50 [8]: 10.4 µM
Activity [9]: Active
Activity [10]: 4.6 mmol/L
IC50 [4]: 2.1 µM
Activity [11]: inactive
Activity [12]: 0.493 g
Ratio IC50 [13]: 7.8
Activity [14]: <= 10%
Activity [15]: 0.219 g
Activity [16]: Active
Activity [17]: 47.7%
IC50 [18]: 3.1 µM
IC50 [19]: 4 µM
Activity [20]: Active
Activity [21]: 1.24 g
Activity [22]: inactive
Activity [23]: 751 ×10³ /uL
fold change (FC) [24]: 3
IC50 [25]: 9.9 µM
Activity [26]: inactive
Ratio IC50 [6]: 10
Activity [27]: 62
IC50 [28]: 11.7 µM
Activity [29]: 10.1 ×10⁶ /uL
Activity [30]: 28.2 U/L
Activity [31]: 142.5 U/L
Ratio IC50 [7]: 5
Activity [32]: 0.14 g
Activity [33]: inactive
Activity [34]: 9.3 µmol/L
Activity [35]: 17.3 g/dL
Activity [36]: > 5%
fold change (FC) [37]: 3
Activity [38]: Active
Activity [39]: Active
IC50 [40]: 17.5 µM
inhibition in vivo at 450 µmol/kg [41]: 7.1%
IC50 [42]: 0.5 µM
Activity [43]: Non-Toxic
Activity [44]: 201.2 ×10³ /uL
Activity [45]: Toxic
Activity [46]: Toxic
Activity [47]: inactive
